Reference: ChEMBL document CHEMBL5137000, “Discovery of a novel and potent inhibitor with differential species-specific effects against NLRP3 and AIM2 inflammasome-dependent pyroptosis” (Eur J Med Chem, 2022)
Calls of active or inactive are those of the source. The rule behind the calls is not given here.

Molecular target: NACHT, LRR and PYD domains-containing protein 3 (Homo sapiens) (UniProt Q96P20)
Assay: Inhibition of NLRP3 inflammasome activation in LPS-primed human THP-1 cells assessed as reduction in nigericin-induced IL-1beta release in supernatant pretreated for 30 mins followed by nigericin stimulation and measured after 30 min by ELISA
Type: cell-based
Details: time 60.0 min

NACHT, LRR and PYD domains-containing protein 3 (Homo sapiens), sequence (Q96P20 whole entry, the tested form may be a part): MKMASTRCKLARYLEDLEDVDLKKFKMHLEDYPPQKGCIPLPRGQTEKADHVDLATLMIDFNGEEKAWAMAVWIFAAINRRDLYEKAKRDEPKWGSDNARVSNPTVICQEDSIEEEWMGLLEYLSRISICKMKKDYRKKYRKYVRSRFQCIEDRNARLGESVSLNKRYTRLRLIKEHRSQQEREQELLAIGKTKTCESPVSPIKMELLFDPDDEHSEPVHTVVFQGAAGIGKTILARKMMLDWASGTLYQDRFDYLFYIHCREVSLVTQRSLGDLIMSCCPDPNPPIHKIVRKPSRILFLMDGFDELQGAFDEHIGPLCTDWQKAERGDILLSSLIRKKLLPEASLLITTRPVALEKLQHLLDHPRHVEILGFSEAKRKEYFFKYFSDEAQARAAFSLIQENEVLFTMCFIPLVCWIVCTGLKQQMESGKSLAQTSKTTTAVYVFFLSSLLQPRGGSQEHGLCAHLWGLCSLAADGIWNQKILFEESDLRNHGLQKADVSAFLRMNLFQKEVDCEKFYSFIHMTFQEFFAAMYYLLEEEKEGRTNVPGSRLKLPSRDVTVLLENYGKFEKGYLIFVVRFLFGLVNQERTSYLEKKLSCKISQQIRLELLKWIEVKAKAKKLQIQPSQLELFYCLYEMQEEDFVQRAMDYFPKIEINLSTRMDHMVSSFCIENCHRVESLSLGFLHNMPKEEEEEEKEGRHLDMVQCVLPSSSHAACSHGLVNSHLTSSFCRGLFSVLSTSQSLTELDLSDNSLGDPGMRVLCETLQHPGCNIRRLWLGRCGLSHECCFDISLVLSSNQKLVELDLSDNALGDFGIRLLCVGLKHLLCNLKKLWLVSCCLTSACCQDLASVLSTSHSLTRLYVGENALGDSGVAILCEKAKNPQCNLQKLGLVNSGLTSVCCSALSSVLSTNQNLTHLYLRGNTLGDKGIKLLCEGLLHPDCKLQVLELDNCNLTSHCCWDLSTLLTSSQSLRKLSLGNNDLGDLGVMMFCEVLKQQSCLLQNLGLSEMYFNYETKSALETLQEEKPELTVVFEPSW

inhibition: Active
SMILES: COc1ccc(CC(=O)Nc2cccc(B(O)O)c2)cc1
